Data taken from ChEMBL document CHEMBL1155595, “Inhibition of T-lymphocyte proliferation by cucurbitacins from Picrorhiza scrophulariaeflora” (J Nat Prod, 2000).

Legend:
[1] = Cytotoxicity against human peripheral blood lymphocytes at <60 uM after 4 days by CFDA/PI labeling assay; conditions: pbl, 96 h
[2] = Inhibition of phytohemagglutininin A-induced T-cell proliferation in human peripheral blood lymphocytes after 4 days by MTT assay; assay type: functional, cell-based; conditions: PBL, 96 h
[3] = Cytotoxicity against human peripheral blood lymphocytes assessed as LDH release upto 50 uM after 24 hrs; conditions: pbl

| SMILES | Activity [1] [%] | IC50 [2] [µM] | Activity [3] |
| --- | --- | --- | --- |
| CC(=O)OC(C)(C)/C=C/C(=O)[C@@](C)(O)[C@H]1[C@H](O)C[C@@]2(C)[C@@H]3CC=C4[C@@H](C[C@H](O)[C@H](O)C4(C)C)[C@]3(C)CC[C@]12C [PICRACIN] | < 10 | 1 | Non-toxic |
| CC(C)(O)/C=C/C(=O)[C@@](C)(O)[C@H]1[C@H](O)C[C@@]2(C)[C@@H]3CC=C4[C@@H](C[C@H](O)[C@H](O)C4(C)C)[C@]3(C)CC[C@]12C [DEACETYLPICRACIN] | < 10 | 1 | Non-toxic |
